These results are taken from US8598212B2, “Therapeutic agent and preventative agent for alzheimer's disease” (Toray Industries, Inc., priority 2010, dated 2013).

Counter-ions that a name gives are not always drawn.

The test system of experiment [1] is mouse partial sciatic nerve ligation model. Nature of the experiment: von Frey test in mouse partial sciatic nerve ligation model (Seltzer model). It is filed as in vivo, ICR mice. The note with it: for inhibition in vivo at 10 mg/kg / von Frey Total Score of 1 Hour after Oral Administration (Mean ± S.E.), Test Compound-Administered Group: dose 10 mg/kg oral; for von Frey Total Score of 1 Hour after Oral Administration (Mean ± S.E.), Test Compound-Administered Group: n = 5-6, 7 days after ligation. Here is the method: As a reference example, the mouse partial sciatic nerve ligation model (Seltzer model), by which neuropathic pain can be evaluated, was used to evaluate the analgesic effect of Compound (I).
Mouse models of partial sciatic nerve ligation were prepared according to Seltzer's method (Malmberg et al., Pain, 1998, vol. 76, p. 215-222). Male ICR mice of 5 weeks old were anesthetized with Sodium pentobarbital (70 mg/kg, i.p.), and thereafter, the sciatic nerve at the femoral region of the right hind limb of each mouse was exposed, and the sciatic nerve was triply ligated tightly with silk suture of 8-0 (NATSUME SEISAKUSHO) under microscope so that only half thickness of the nerve was trapped in the ligature, which mice were used as a ligation group. The mice whose sciatic nerves were exposed but not ligated were used as a sham operation group.
Evaluation of neuropathic pain (hereinafter “von Frey test”) was carried out as follows. Mice were conditioned for at least 1 hour in an acryl cage for measurement (NATSUME SEISAKUSHO) placed on a wire net. Thereafter, using a filament (North Coast Medical, Inc. CA, USA) which exerted a pressure of 0.16 g, the mice were subjected to mechanical tactile stimulus by applying the filament to the plantar surface of both hindpaws 3 times, each for 3 seconds, with an interval of 3 seconds.
Seven days after the sciatic nerve ligation, test compounds were orally administered to the mice. Prior to the oral administration of the test compounds, the von Frey test was carried out to split the animals of the ligation group into vehicle groups and test compound-administered groups so that the sums of the total scores of the groups were equalized. The mice of the sham operation groups, the vehicle groups and the test compound-administered groups were subjected to the von Frey test 1 hour, 2 hours and 3 hours after oral administration of a vehicle or a test compound, and the obtained scores were used as an indicator of analgesic effect. As a vehicle of test compound solution or suspension, dimethyl sulfoxide (hereinafter “DMSO”):Tween80:distilled water (1:1:8), 27% hydroxypropyl-β-cyclodextrin (hereinafter “27% HP-β-CD”) or 0.5% MC was used.
For evaluation of drug efficacy, data were statistically processed by the unpaired multigroup t test (adjusted by Dunnett), taking the vehicle group of each measurement time as a control.

In experiment [2] the test system is Alzheimer's disease model rats. Nature of the experiment: Morris water maze test in Alzheimer's disease model rats (basal ganglia destroyed with ibotenic acid). Particulars: 30 mg/kg oral once per day from Day 0 after destruction treatment, not given just before trials; Day 10 to Day 12; compared to vehicle-administered group. It counts as in vivo, Wistar rats.
Experiment [3] concerns patients with complex regional pain syndrome. The note with it: Sinia et al., Clin J Pain, 2007; cited from earlier work.
For experiment [4], the system named is rat diabetic neuropathic pain model. Particulars: Chen et al., 2009; cited from earlier work.
In experiment [5] the test system is rats with medial septal lesions. The note with it: 0.5 mg/kg; Ogura et al., 1998; cited from earlier work.
Experiment [6] has as its system rat neuropathic pain model. The note with it: Clayton et al., Anesthesiology, 2007; cited from earlier work.
Setting [7] is: Mus musculus, po, 1 h, relative to vehicle and sham operation groups, read-out: Score Improvement.

With `COc1ccc(-c2nc(C3(O)CCC(O)CC3)oc2-c2ccc(OC)cc2)cc1` (stereo not drawn) [Compound 43, 4-(4,5-bis(4-methoxyphenyl)oxazol-2-yl)cyclohexan-cis-1,4-diol], the inhibition in vivo at 10 mg/kg in experiment [1] (setting [7]) stood at 100%.

`COc1ccc(-n2nc(C3(O)CCC(O)CC3)cc2-c2ccc(C)cc2)cc1` (single isomer, unassigned) [Compound 3, 1-(1-(4-methoxyphenyl)-5-(p-tolyl)-1H-pyrazol-3-yl)cyclohexan-cis-1,4-diol]: the “Escape latency in Morris water maze” value in experiment [2] is given as “statistically significantly shortened”.

On to `CC12CC3CC(C)(C1)CC(N)(C3)C2` [memantine], for which the analgesic effect entry in experiment [3] and in experiment [4] was “exhibits an analgesic effect” in each case.

Turning to `COc1ccc(-n2nc(C3(O)CCC(O)CC3)cc2-c2ccc(C)cc2)cc1F` (centres unmarked) [Compound 54], the inhibition in vivo at 10 mg/kg in experiment [1] (setting [7]) is 83%.

On to `CCc1ccc(-c2cc(C3(O)CCC(O)CC3)nn2-c2ccc(OC)cc2)cc1` (centres unmarked) [Compound 48], for which the inhibition in vivo at 10 mg/kg in experiment [1] (setting [7]) worked out at 83%. Also, the “von Frey Total Score of 1 Hour after Oral Administration (Mean ± S.E.), Test Compound-Administered Group” value in experiment [1] was 1.0 ± 0.5.

Take `COc1cc2c(cc1OC)C(=O)C(CC1CCN(Cc3ccccc3)CC1)C2` (centres unmarked) [donepezil hydrochloric acid salt]: the “effectiveness in the Morris water maze test” value in experiment [5] is given as “effective”.

Turning to `COc1ccc(-n2nc(C3(O)CCC(O)(C(F)(F)F)CC3)cc2-c2ccc(C)cc2)cc1` (stereo not drawn) [Compound 10, 1-(1-(4-methoxyphenyl)-5-(p-tolyl)-1H-pyrazol-3-yl)-4-(trifluoromethyl)cyclohexan-cis-1,4-diol], in experiment [1] (Mus musculus, po, 1 h, dose 1 mg/kg oral, relative to vehicle and sham operation groups, read-out: Score Improvement), the inhibition in vivo at 1 mg/kg came out at 78%.

Take `COc1cc2c(cc1OC)C(=O)C(CC1CCN(Cc3ccccc3)CC1)C2` (centres unmarked) [donepezil]: the analgesic effect entry in experiment [6] is on record as “exhibits an analgesic effect”.

With `COc1ccc(-n2nc(C3(O)CCC(O)CC3)cc2-c2ccc(C)c(F)c2)cc1` (centres unmarked) [Compound 55], the inhibition in vivo at 3 mg/kg in experiment [1] (Mus musculus, po, 1 h, dose 3 mg/kg oral, relative to vehicle and sham operation groups, read-out: Score Improvement) is 93%.

Regarding `COc1ccc(-n2nc(C3(O)CCC(O)CC3)cc2-c2ccc(C)nc2)cc1` (stereo not drawn) [Compound 15, 1-(1-(4-methoxyphenyl)-5-(6-methylpyridin-3-yl)-1H-pyrazol-3-yl)cyclohexan-cis-1,4-diol], the inhibition in vivo at 10 mg/kg in experiment [1] (setting [7]) amounted to 84%. For the same compound, the “von Frey Total Score of 1 Hour after Oral Administration (Mean ± S.E.), Test Compound-Administered Group” value in experiment [1] is recorded as 1.0 ± 0.4.

Take `COc1ccc(-c2cc(C3(O)CCC(O)CC3)nn2-c2ccc(OC)cc2)cc1` (stereo not drawn) [Compound 8, 1-(1,5-bis(4-methoxyphenyl)-1H-pyrazol-3-yl)cyclohexan-cis-1,4-diol]: the inhibition in vivo at 10 mg/kg in experiment [1] (setting [7]) came to 70%.
